Data taken from ChEMBL document CHEMBL5215006, “Antitumor Activity of Piceamycin by Upregulation of N-Myc Downstream-Regulated Gene 1 in Human Colorectal Cancer Cells” (J Nat Prod, 2022).
The source made the active and inactive calls. No cut-off for these calls is given here.

Assays:
HCT-116 [1] = experiment: Cell cycle arrest in human HCT-116 cells assessed as downregulation of CDK6 protein expression at 0.075 to 0.3 uM incubated for 24 hrs by immunoblotting assay; assay type: functional, cell-based; details: dose 0.075-0.3 µM
SW480 [2] = experiment: Anti-migratory activity against human SW480 cells assessed as downregulation of N-cadherin protein expression at 0.35 to 1.4 uM incubated for 24 hrs by immunoblotting assay; assay type: functional, cell-based; details: dose 0.35-1.4 µM
SW480 [3] = experiment: Induction of apoptosis in human SW480 cells assessed as necrotic cells at 1.4 uM incubated for 48 hrs by Annexin V-FITC/PI staining based flow cytometry analysis (Rvb= 0.07%); assay type: functional
SW480 [4] = experiment: Induction of apoptosis in human SW480 cells assessed as viable cells at 0.7 uM incubated for 48 hrs by Annexin V-FITC/PI staining based flow cytometry analysis (Rvb= 92.6%); assay type: functional; details: read-out: Activity
HCT-116 [5] = experiment: Cell cycle arrest in human HCT-116 cells assessed as accumulation at G0/G1 phase at 0.075 uM incubated for 24 hrs by RNaseA/propidium iodide staining based flow cytometry (reference value: 48.44 %); assay type: functional
SW480 [6] = experiment: Cell cycle arrest in human SW480 cells assessed as accumulation at Sub-G1 phase at 1.4 uM incubated for 24 hrs by RNaseA/propidium iodide staining based flow cytometry (reference value: 3.2 %); assay type: functional
HCT-116 [7] = experiment: Cell cycle arrest in human HCT-116 cells assessed as accumulation at S phase at 0.075 uM incubated for 24 hrs by RNaseA/propidium iodide staining based flow cytometry (reference value: 19.94 %); assay type: functional
SW480 [8] = experiment: Anti-migratory activity against human SW480 cells assessed as upregulation of E-cadherin protein expression at 0.35 to 1.4 uM incubated for 24 hrs by immunoblotting assay; assay type: functional, cell-based; details: dose 0.35-1.4 µM
HCT-116 [9] = experiment: Antitumor activity against human HCT-116 cells assessed as upregulation of NDRG1 protein expression at 0.075 to 0.3 uM incubated for 24 hrs by immunoblotting assay; assay type: functional, cell-based; details: dose 0.075-0.3 µM, DDE = dose-dependent effect
HCT-116 [10] = experiment: Cell cycle arrest in human HCT-116 cells assessed as accumulation at S phase at 0.3 uM incubated for 24 hrs by RNaseA/propidium iodide staining based flow cytometry (reference value: 19.94 %); assay type: functional
HCT-116 [11] = experiment: Induction of apoptosis in human HCT-116 cells assessed as early apoptotic cells at 0.075 uM incubated for 48 hrs by Annexin V-FITC/PI staining based flow cytometry analysis (Rvb= 2.51%); assay type: functional
HCT-116 [12] = experiment: Cell cycle arrest in human HCT-116 cells assessed as accumulation at Sub-G1 phase at 0.075 uM incubated for 24 hrs by RNaseA/propidium iodide staining based flow cytometry (reference value: 3.66 %); assay type: functional
HCT-116 [13] = experiment: Induction of apoptosis in human HCT-116 cells assessed as necrotic cells at 0.15 uM incubated for 48 hrs by Annexin V-FITC/PI staining based flow cytometry analysis (Rvb= 0.13%); assay type: functional
HCT-116 [14] = experiment: Antimigratory activity against highly liver metastatic human HCT-116 cells assessed as upregulation of NDRG1 protein expression at 0.075 to 0.3 uM incubated for 24 hrs by immunoblotting assay; assay type: functional, cell-based; details: dose 0.075-0.3 µM
HCT-116 [15] = experiment: Induction of apoptosis in human HCT-116 cells assessed as necrotic cells at 0.3 uM incubated for 48 hrs by Annexin V-FITC/PI staining based flow cytometry analysis (Rvb= 0.13%); assay type: functional
SW480 [16] = experiment: Induction of apoptosis in human SW480 cells assessed as early apoptotic cells at 1.4 uM incubated for 48 hrs by Annexin V-FITC/PI staining based flow cytometry analysis (Rvb= 2.07%); assay type: functional
HCT-116 [17] = experiment: Induction of apoptosis in human HCT-116 cells assessed as necrotic cells at 0.075 uM incubated for 48 hrs by Annexin V-FITC/PI staining based flow cytometry analysis (Rvb= 0.13%); assay type: functional
HCT-116 [18] = experiment: Cell cycle arrest in human HCT-116 cells assessed as accumulation at G2/M phase at 0.075 uM incubated for 24 hrs by RNaseA/propidium iodide staining based flow cytometry (reference value: 28.41 %); assay type: functional
SW480 [19] = experiment: Inhibition of cell migration in human SW480 cells at 0.35 to 1.4 uM incubated for 24 hrs by wound-healing assay; assay type: functional, cell-based; details: dose 0.35-1.4 µM, DDE = dose-dependent effect
HCT-116 [20] = experiment: Downregulation of cleaved caspase 8 protein expression in human HCT-116 cells with NDRG1 knockdown at 0.3 uM incubated for 24 hrs by immunoblotting assay; assay type: functional, cell-based
HCT-116 [21] = experiment: Induction of apoptosis in human HCT-116 cells assessed as late apoptotic cells at 0.075 uM incubated for 48 hrs by Annexin V-FITC/PI staining based flow cytometry analysis (Rvb= 3.18%); assay type: functional
SW480 [22] = experiment: Cell cycle arrest in human SW480 cells assessed as accumulation at G2/M phase at 0.7 uM incubated for 24 hrs by RNaseA/propidium iodide staining based flow cytometry (reference value: 24.74 %); assay type: functional
SW480 [23] = experiment: Induction of apoptosis in human SW480 cells assessed as late apoptotic cells at 0.35 uM incubated for 48 hrs by Annexin V-FITC/PI staining based flow cytometry analysis (Rvb= 5.26%); assay type: functional
SW480 [24] = experiment: Induction of apoptosis in human SW480 cells assessed as necrotic cells at 0.35 uM incubated for 48 hrs by Annexin V-FITC/PI staining based flow cytometry analysis (Rvb= 0.07%); assay type: functional
SW480 [25] = experiment: Induction of apoptosis in human SW480 cells assessed as late apoptotic cells at 1.4 uM incubated for 48 hrs by Annexin V-FITC/PI staining based flow cytometry analysis (Rvb= 5.26%); assay type: functional
HCT-116 [26] = experiment: Inhibition of colony formation in human HCT-116 cells at 0.075 to 0.3 uM incubated for 72 hrs by crystal violet staining based assay; assay type: functional, cell-based; details: dose 0.075-0.3 µM, DDE = dose-dependent effect
SW480 [27] = experiment: Cell cycle arrest in human SW480 cells assessed as accumulation at S phase at 1.4 uM incubated for 24 hrs by RNaseA/propidium iodide staining based flow cytometry (reference value: 16.7 %); assay type: functional
HCT-116 [28] = experiment: Antitumor activity against human HCT-116 cells xenografted Balb/c mouse assessed as increase in NDRG1 protein expression at 1 mg/kg,ip administrated for 18 days by 3 times per week by immunoblotting assay; assay type: functional, organism-based; details: time 18.0 day
HCT-116 [29] = experiment: Cell cycle arrest in human HCT-116 cells assessed as accumulation at Sub-G1 phase at 0.15 uM incubated for 24 hrs by RNaseA/propidium iodide staining based flow cytometry (reference value: 3.66 %); assay type: functional
HCT-116 [30] = experiment: Antimigratory activity against highly liver metastatic human HCT-116 cells assessed as upregulation of NDRG1 gene expression at 0.075 to 0.3 uM incubated for 24 hrs by RT-PCR method; assay type: functional, cell-based; details: dose 0.075-0.3 µM
SW480 [31] = experiment: Induction of apoptosis in human SW480 cells assessed as viable cells at 0.35 uM incubated for 48 hrs by Annexin V-FITC/PI staining based flow cytometry analysis (Rvb= 92.6%); assay type: functional; details: read-out: Activity
HCT-116 [32] = experiment: Anti-migratory activity against human HCT-116 cells assessed as downregulation of N-cadherin gene expression at 0.075 to 0.3 uM incubated for 24 hrs by RT-PCR assay; assay type: functional, cell-based; details: dose 0.075-0.3 µM
HCT-116 [33] = experiment: Antitumor activity against human HCT-116 cells xenografted Balb/c mouse assessed as reduction in tumor growth at 3 mg/kg,ip administrated for 18 days by 3 times per week; assay type: functional; set-up: scale not given: the % may be the effect or the level left; details: time 18 day

C[C@@H]1\C=C/C=C/C=C\C=C\C=C\C(=O)C2=C(O)C(=O)C[C@@]2(C)/C=C/C=C\C=C/C(=O)NC1
Activity (HCT-116 [1]): Active
Activity (SW480 [2]): Active
Activity (SW480 [3]): 0.19%
viability at 0.7 µM (SW480 [4]): 69.8%
Activity (HCT-116 [5]): 48.48%
Activity (SW480 [6]): 4.98%
Activity (HCT-116 [7]): 18.4%
Activity (SW480 [8]): Active
Activity (HCT-116 [9]): Dde
Activity (HCT-116 [10]): 10.04%
Activity (HCT-116 [11]): 8.29%
Activity (HCT-116 [12]): 4.46%
Activity (HCT-116 [13]): 0.18%
Activity (HCT-116 [14]): Active
Activity (HCT-116 [15]): 0.18%
Activity (SW480 [16]): 24.26%
Activity (HCT-116 [17]): 0.16%
Activity (HCT-116 [18]): 29.02%
inhibition (SW480 [19]): Dde
Activity (HCT-116 [20]): Active
Activity (HCT-116 [21]): 6.71%
Activity (SW480 [22]): 17.02%
Activity (SW480 [23]): 4.36%
Activity (SW480 [24]): 0.06%
Activity (SW480 [25]): 44.51%
inhibition (HCT-116 [26]): Dde
Activity (SW480 [27]): 11.23%
Activity (HCT-116 [28]): Active
Activity (HCT-116 [29]): 5.1%
Activity (HCT-116 [30]): Active
viability at 0.35 µM (SW480 [31]): 93%
Activity (HCT-116 [32]): Active
Activity (HCT-116 [33]): 89%
